Test results from patent US5646173A, “Tricyclic pyrrole derivatives useful as 5-HT selective agents” (Hoffmann-La Roche Inc., priority 1993, dated 1997).
Structures can show the parent of a compound that is named as a salt. Where two headings read alike, the source gives them in different places.

How the values were obtained:
human-5HT1A receptors = molecular target: T1, human-5HT1A receptors (Homo sapiens, UniProt P08908); assay: [3H]-5-HT displacement on recombinant human 5HT1A receptors expressed in 3T3 cells of mice (Method II a); type: binding
T1 construct: expressed in transfected cells; host or cells: mouse 3T3 cells
T1 sequence (P08908 1-422): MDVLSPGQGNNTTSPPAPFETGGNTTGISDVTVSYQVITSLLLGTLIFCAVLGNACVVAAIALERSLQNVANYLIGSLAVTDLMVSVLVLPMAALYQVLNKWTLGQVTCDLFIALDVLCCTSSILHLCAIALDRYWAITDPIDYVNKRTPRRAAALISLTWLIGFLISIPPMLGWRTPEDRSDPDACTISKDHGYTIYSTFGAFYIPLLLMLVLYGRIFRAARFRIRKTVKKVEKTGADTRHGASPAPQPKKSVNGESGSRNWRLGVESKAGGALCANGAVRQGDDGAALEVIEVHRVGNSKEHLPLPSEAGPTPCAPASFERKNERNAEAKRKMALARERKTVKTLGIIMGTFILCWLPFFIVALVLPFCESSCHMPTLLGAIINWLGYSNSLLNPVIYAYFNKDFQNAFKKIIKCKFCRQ
Text: [L] is the concentration of ligand and the KD value is the dissociation constant of the ligand.

5HT2A receptor [1] = molecular target: T2, 5HT2A receptor (Homo sapiens, UniProt P28223); assay: [3H]-DOB binding assay (Method II c)
T2 construct: expressed in transfected cells; host or cells: transfected mammalian cells (inferred from the cited method)
Text: c) For the binding to the 5HT2A receptor in accordance with the [3H]-DOB binding assay according to the method of T. Branchek et al., Molecular Pharmacology 38, 604-609 (1990).
(§1) The pki values (pki =-log^10 Ki) of the test substances are given. […] [L] is the concentration of ligand and the KD value is the dissociation constant of the ligand.

5HT2C receptor [2] = molecular target: T3, 5HT2C receptor (Rattus norvegicus, UniProt P08909); assay: [3H]-5-HT binding assay (Method II b); parameters: expressed in transfected cells; host or cells: clonal 5-HT1C cell line
T3 sequence (P08909 33-460): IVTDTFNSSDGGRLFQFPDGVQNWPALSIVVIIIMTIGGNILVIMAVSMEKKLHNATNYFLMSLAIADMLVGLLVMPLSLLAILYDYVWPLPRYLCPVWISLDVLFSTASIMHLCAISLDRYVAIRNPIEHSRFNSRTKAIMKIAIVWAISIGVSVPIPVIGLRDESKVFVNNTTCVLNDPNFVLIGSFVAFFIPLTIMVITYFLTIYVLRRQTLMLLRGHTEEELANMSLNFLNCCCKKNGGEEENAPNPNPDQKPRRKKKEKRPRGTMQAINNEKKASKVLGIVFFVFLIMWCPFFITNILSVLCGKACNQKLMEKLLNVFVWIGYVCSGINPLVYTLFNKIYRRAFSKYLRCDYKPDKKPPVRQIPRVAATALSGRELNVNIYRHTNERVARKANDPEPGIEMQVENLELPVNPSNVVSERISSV
Text: b) For the binding to the 5HT2C receptor in accordance with the [3H]-5-HT binding assay according to the method of S. J. Peroutka et al., Brain Research 584, 191-196 (1992).
as §1

5HT2C receptor [3] = molecular target: T3, 5HT2C receptor; assay: Penile erection (rats); type: in vivo; parameters: from tissue; host or cells: living rat; conditions: s.c., number of penile erections within 45 minutes following administration
Procedure: It has been shown that penile erection is dependent on the stimulation of the 5HT2C receptor (see Berendsen & Broekkamp, Eur. J. Pharmacol, 135, 179-184 (1987)).
The number of penile erections was determined within 45 minutes following administration of the test substance to the animal.

5HT2A receptor [4] = molecular target: T4, 5HT2A receptor (Rattus norvegicus, UniProt P14842); assay: biochemical; type: binding
T4 construct: from tissue; host or cells: rat frontal cortex membranes (inferred from the cited method)
Procedure: (§2) The binding of the compounds of formula I in accordance with the invention to serotonin receptors was determined in vitro by standard methods. The preparations were investigated in accordance with the assays given hereinafter:
c) For the binding to the 5HT2A receptor in accordance with the ^3 H-ketanserine binding assay according to the method of J. E. Leysen, Molecular Pharmacology 21, 301-304 (1981).

5HT1A receptor = assay: 3H-8-OH-DPAT binding assay (Method I a); conditions: read-out: IC50, test method a
Procedure: The binding of the compounds of formula I in accordance with the invention to serotonin receptors was determined in vitro by standard methods. The preparations were investigated in accordance with the assays given hereinafter: […]

5HT2C receptor [5] = molecular target: T5, 5HT2C receptor (Sus scrofa, UniProt K7GSR7); assay: 3H-mesulergine binding assay (Method I b)
T5 construct: from tissue
T5 sequence (K7GSR7 1-457): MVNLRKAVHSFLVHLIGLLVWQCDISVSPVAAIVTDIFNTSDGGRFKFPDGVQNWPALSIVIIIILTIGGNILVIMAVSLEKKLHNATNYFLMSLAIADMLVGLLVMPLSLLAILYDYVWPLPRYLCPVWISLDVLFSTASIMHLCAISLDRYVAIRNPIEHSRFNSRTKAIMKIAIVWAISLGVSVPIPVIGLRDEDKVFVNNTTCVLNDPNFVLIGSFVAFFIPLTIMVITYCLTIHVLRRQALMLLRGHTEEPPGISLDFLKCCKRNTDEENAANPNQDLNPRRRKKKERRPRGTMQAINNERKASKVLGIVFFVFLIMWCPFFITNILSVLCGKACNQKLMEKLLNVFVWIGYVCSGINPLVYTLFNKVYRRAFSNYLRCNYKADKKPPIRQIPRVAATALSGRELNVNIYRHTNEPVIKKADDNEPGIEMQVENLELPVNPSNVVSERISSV
Procedure: as §2
b) For the binding to the 5HT2C receptor in accordance with the ^3 H-mesulergine binding assay according to the method of A. Pazos et al., Europ. J. Pharmacol. 106, 539-546 or. D. Hoyer, Receptor Research 8, 59-81 (1988).

[6] = rat, sc, 0.75 h, read-out: ED50
[7] = 5HT2C, [3H]-5-HT, Method II, read-out: pki, test method b (converted)
[8] = human 5HT1A, [3H]-5-HT (1 nM), 3T3 cell membranes, Method II, read-out: pki, test method a (converted)

T4 sequence (P14842 whole entry): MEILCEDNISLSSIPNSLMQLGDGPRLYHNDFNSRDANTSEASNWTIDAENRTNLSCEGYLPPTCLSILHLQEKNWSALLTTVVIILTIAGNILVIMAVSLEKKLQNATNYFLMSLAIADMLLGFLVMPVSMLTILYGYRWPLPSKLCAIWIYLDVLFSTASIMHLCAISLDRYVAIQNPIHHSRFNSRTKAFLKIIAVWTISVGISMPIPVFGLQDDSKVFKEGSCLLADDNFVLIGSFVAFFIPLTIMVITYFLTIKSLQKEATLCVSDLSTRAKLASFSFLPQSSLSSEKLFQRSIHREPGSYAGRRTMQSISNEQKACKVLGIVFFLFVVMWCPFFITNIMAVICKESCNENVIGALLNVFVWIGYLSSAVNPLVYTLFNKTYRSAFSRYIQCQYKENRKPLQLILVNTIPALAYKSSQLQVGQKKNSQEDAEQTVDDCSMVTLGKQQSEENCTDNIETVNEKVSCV
T2 sequence (P28223 whole entry): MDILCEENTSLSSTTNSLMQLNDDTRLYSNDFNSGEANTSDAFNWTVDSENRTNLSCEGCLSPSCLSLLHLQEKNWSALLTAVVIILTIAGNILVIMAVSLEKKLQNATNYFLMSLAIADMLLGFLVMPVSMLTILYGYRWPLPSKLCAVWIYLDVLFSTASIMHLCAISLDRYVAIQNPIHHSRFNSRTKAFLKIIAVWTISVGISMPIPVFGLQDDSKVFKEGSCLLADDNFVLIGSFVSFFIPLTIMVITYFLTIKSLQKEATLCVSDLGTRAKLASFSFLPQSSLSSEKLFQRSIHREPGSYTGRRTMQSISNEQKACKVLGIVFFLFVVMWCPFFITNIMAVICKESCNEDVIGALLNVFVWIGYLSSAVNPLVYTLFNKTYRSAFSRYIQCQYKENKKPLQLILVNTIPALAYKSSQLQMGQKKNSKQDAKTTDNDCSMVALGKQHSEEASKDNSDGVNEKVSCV

| Compound | Ki (human-5HT1A receptors) [nM] | Ki (5HT2A receptor [1]) [nM] | Ki (5HT2C receptor [2]) [nM] | ED50 (5HT2C receptor [3]; [6]) [mg/kg] | Ki (5HT2C receptor [2]; [7]) [nM] | IC50 (5HT2A receptor [4]) [nM] | IC50 (5HT1A receptor) [nM] | IC50 (5HT2C receptor [5]) [nM] | ED50 (5HT2C receptor [3]) | Ki (human-5HT1A receptors; [8]) [nM] |
| --- | --- | --- | --- | --- | --- | --- | --- | --- | --- | --- |
| COc1ccc2c(c1)-c1c(ccn1C[C@H](C)N)C2(C)C.O=C(O)/C=C/C(=O)O [Example 2, (S)-2-(7-methoxy-4,4-dimethyl-1,4-dihydro-indeno[1,2-b]pyrrol-1-yl)-1-methyl-ethylamine fumarate (1:1)] | 4070 | 9.33 | 0.363 | 0.5 |  |  |  |  |  |  |
| COc1cc2c(cc1Cl)C(C)(C)c1ccn(C[C@H](C)N)c1-2 [Example 26, (S)-2-(6-chloro-7-methoxy-4,4-dimethyl-1,4-dihydro-indeno[1,2-b]pyrrol-1-yl)-1-methyl-ethylamine fumarate (1:1)] | 5620 | 67.6 |  |  | 26.3 |  |  |  |  |  |
| Cc1ccc2c(c1)-c1c(ccn1C[C@H](C)N)C2(C)C.O=C(O)/C=C/C(=O)O [Example 1, (S)-2-(4,4,7-trimethyl-1,4-dihydro-indeno[1,2-b]pyrrol-1-yl)-1-methyl-ethylamine fumarate (1:1)] | 2190 | 53.7 | 3.24 | 0.9 |  |  |  |  |  |  |
| C[C@H](N)Cn1ccc2c1-c1cc(Cl)ccc1C2 [Example 4, (S)-2-(7-chloro-1,4-dihydro-indeno[1,2-b]pyrrol-1-yl)-1-methyl-ethylamine fumarate (1:0.5)] |  |  |  | 2.7 |  | 2170 | 3230 | 49.3 |  |  |
| COc1ccc2c(c1)-c1c(ccn1C[C@H](C)N)CC2.O=C(O)/C=C/C(=O)O [Example 5, (S)-2-(4,5-dihydro-8-methoxy-1H-benz[g]indol-1-yl)-1-methyl-ethylamine fumarate (1:1)] |  |  |  |  |  | 591 | 2560 | 20.2 | 3.20 mg/kg, s.c. |  |
| Cc1ccc2c(c1)-c1c(ccn1C[C@H](C)N)C21CCCC1 [Example 44, (S)-1-methyl-2-(7'-methyl-1',4'-dihydro-spiro[cyclopentane]-1,4'-indeno[1,2-b]pyrrol-1-yl)-ethylamine fumarate (1:1)] |  | 269 | 79.4 |  |  |  |  |  |  | 1860 |
| CCc1ccc2c(c1)-c1c(ccn1C[C@H](C)N)C2 [Example 17, (S)-2-(7-ethyl-1,4-dihydro-indeno[1,2-b]pyrrol-1-yl)-1-methyl-ethylamine fumarate (1:0.5)] |  | 562 | 18.2 |  |  |  |  |  |  | 10000 |
| Cc1cccc2c1Cc1ccn(CC(C)N)c1-2 (racemic) [Example 50, (RS)-2-(5-methyl-1,4-dihydro-indeno[1,2-b]pyrrol-1-yl)-1-methyl-ethylaminefumarate (1:0.5)] |  | 447 | 107 |  |  |  |  |  |  | 2400 |
| COc1ccc2c(c1)-c1c(ccn1C[C@H](C)N)C2 [Example 3, (S)-2-(7-methoxy-1,4-dihydro-indeno[1,2-b]pyrrol-1-yl)-1-methyl-ethylaminefumarate (1:0.5)] |  | 75.9 | 6.92 | 1.2 |  | 2160 | 2830 | 11.4 |  |  |
| CCC1(CC)c2ccc(OC)cc2-c2c1ccn2C[C@H](C)N [Example 12, (S)-2-(7-methoxy-4,4-diethyl-1,4-dihydro-indeno[1,2-b]pyrrol-1-yl)-1-methyl-ethylamine fumarate (1:0.5)] | 10000 | 115 |  |  | 10 |  |  |  |  |  |
| C[C@H](N)Cn1ccc2c1-c1cc(-c3ccccc3)ccc1C2 [Example 14, (S)-2-(7-phenyl-1,4-dihydro-indeno[1,2-b]pyrrol-1-yl)-1-methyl-ethylamine fumarate (1:0.5)] |  | 24 | 16.6 |  |  |  |  |  |  | 10000 |
| C[C@H](N)Cn1ccc2c1-c1cc(F)c(F)cc1C2 [Example 25, (S)-2-(6,7-difluoro-1,4-dihydro-indeno[1,2-b]pyrrol-1-yl)-1-methyl-ethylamine fumarate (1:1)] | 10000 | 550 |  |  | 41.7 |  |  |  |  |  |
